Results: patent publication US20220395500A1, “SMALL MOLECULE ACTIVATORS OF INTERFERON REGULATORY FACTOR 3 AND METHODS OF USE THEREOF” (Neuralexo, Inc., priority 2020, published 2022)
Like-named read-outs stand apart in the source and are kept apart here.

Legend:
J774-Dual cytotoxicity = format: cell-based, mouse; conditions: mouse, J774-Dual cells, read-out: J774 cytotox CC50
Summary of the method: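 Orthogonal cross-species screen in mouse J774-Dual cells using 8-point dose-response format. Cytotoxicity measured in-plate by CellTiter-Glo luminescence, giving CC50 alongside EC50 and ISRE:NFκB ratios.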

[1] = test system: NF-κB-SEAP reporter in THP1-Dual cells; assay: THP1-Dual NF-κB-SEAP reporter counterscreen; format: cell-based, human; conditions: Homo sapiens, THP1-Dual, read-out: THP1 NFkB EC50
Experimental: (§1) THP1 Dual (InvivoGen) cell suspensions were cultured in RPMI 1640 (Hyclone, Logan, Utah) supplemented with 10% fetal bovine serum (Hyclone), 100 U/mL Normocin (Invivogen), and 50 U/mL PenStrep (Gibco, Dublin, Ireland) between a density of 7·10^5-2·10^6 cells/mL. Every other passage, media was supplemented with 5 U/mL Blasticidin and 100 U/mL Zeocin to maintain the expression constructs. White, flat-bottom 384-well plates (Greiner, Kremsmunster, Austria, 781080) were seeded with 2.5·10^4 cells/well in a total of 50 μL media containing 5 ng/mL phorbolmyristic acid (PMA) using a Matrix WellMate (Thermo Scientific) dispenser. After 48 hours of incubation at 37° C., media was removed using a BioTek ELx405 CW plate washer set to aspirate and wash each well three times with 65 μL 1×PBS. Plates were reloaded with 50 μL media without PMA and treatments added. Lipopolysaccharide in dimethylsulfoxide (DMSO) was transferred to control wells using a HP D300 microdispenser to a final concentration of 313 ng/mL. Compounds from chemical library plates were copied using a Sciclone (Caliper LifeSciences) mounted with a 384-pin transfer tool to obtain a final concentration of 10 μM. After incubation with treatments for 24 hours, 10 μL of supernatant media from each well was transferred into a white, flat-bottom 384-well plate for luminescence readout and a black-walled, clear flat-bottom 384-well plate for absorbance readout.
(§2) Specifically, to enable screening of novel chemical entities (NCEs) in a larger screening effort, a robust high-throughput cell-based assay system for primary hit identification of ISRE activators based on the above-mentioned target validation was desired. Human ISRE activity was verified using a THP-1 monocyte line containing the NF-κB-SEAP and IRF-Lucia luciferase dual reporter (THP1-Dual; Invivogen) that features two reporter genes, SEAP (secreted embryonic alkaline phosphatase) and Lucia luciferase, thereby enabling the simultaneous study of the NF-κB and IRF signalling pathways. The Lucia luciferase reporter is under the control of an ISG54 (interferon-stimulated gene) minimal promoter in conjunction with five IFN-stimulated response elements. The SEAP gene is driven by an IFN-β minimal promoter fused to five copies of the NF-κB consensus transcriptional response element and three copies of the c-Rel binding site. Both reporter proteins are readily measurable in the cell culture supernatant when using QUANTI-LUC™ and QUANTI-Blue SEAP detection reagents.
Using the experimental design and data analysis outlined above, optimized assay conditions were obtained. The responsiveness of the human THP-1 Dual cell line was evaluated in an array of assay conditions to obtain sensitive and reproducible results for the activation of IRF and NF-κB reporters. An optimal plating density and differentiation protocol for these cells was established in a 384-well format. All transfer steps are fully automated using high throughput robotic equipment. Briefly, cells are seeded in differentiation medium using a Matrix WellMate fitted with the WellMate Stacker (Thermo Scientific) and incubated at 37° C. with 5% CO2 for 48 h. Following differentiation, cells are washed using a BioTek ELx405 Select CW plate washer and growth medium added with the Matrix WellMate. Programmed control treatments are added to wells using a D300 digital dispenser fitted with T8+ dispense heads (Hewlett Packard) designed to dispense nanoliter quantities of material. Compounds from library plates are added using a pin tool fitted to a Sciclone ALH 3000 Workstation (Caliper Life Sciences) programmed with Maestro v4.4. After treatment, plates are returned to incubators for 24 hours. To measure reporter expression, supernatant is collected using the Sciclone and dispensed into 2 plates: 1) a white 384-well assay plate for Lucia luminescence measurements and 2) a clear-bottom black 384-well assay plate for SEAP absorbance measurements. […]

[2] = test system: IRF-Lucia luciferase reporter (ISRE) in THP1-Dual cells; assay: THP1-Dual IRF-Lucia luciferase reporter assay (ISRE activation); format: cell-based, human; conditions: Homo sapiens, THP1-Dual, read-out: THP1 IRF EC50
Experimental: as §1, §2
The responsiveness of the human THP-1 Dual cell line was evaluated in an array of assay conditions to obtain sensitive and reproducible results for the activation of IRF and NF-κB reporters. […] All transfer steps are fully automated using high throughput robotic equipment. Briefly, cells are seeded in differentiation medium using a Matrix WellMate fitted with the WellMate Stacker (Thermo Scientific) and incubated at 37° C. with 5% CO2 for 48 h. Following differentiation, cells are washed using a BioTek ELx405 Select CW plate washer and growth medium added with the Matrix WellMate. Programmed control treatments are added to wells using a D300 digital dispenser fitted with T8+ dispense heads (Hewlett Packard) designed to dispense nanoliter quantities of material. Compounds from library plates are added using a pin tool fitted to a Sciclone ALH 3000 Workstation (Caliper Life Sciences) programmed with Maestro v4.4. After treatment, plates are returned to incubators for 24 hours. To measure reporter expression, supernatant is collected using the Sciclone and dispensed into 2 plates: 1) a white 384-well assay plate for Lucia luminescence measurements and 2) a clear-bottom black 384-well assay plate for SEAP absorbance measurements.

[3] = THP1-Dual cytotoxicity (Cell Titer Glo, ATP); format: cell-based, human; conditions: human, THP1-Dual cells, read-out: Thp1 cytotox CC50
Summary of the method: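 Human THP1-Dual cells were treated across an 8-point dose-response range. Cytotoxicity was measured in-plate by CellTiter-Glo luminescence, which quantifies ATP as a marker of metabolically active cells, and CC50 was taken as the 50% cytotoxic concentration.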

[4] = test system: IRF-Lucia luciferase reporter (ISRE) in J774-Dual cells; assay: J774-Dual IRF-Lucia luciferase reporter assay (ISRE activation); format: cell-based, mouse; conditions: for EC50: Mus musculus, read-out: J774 IRF EC50
Experimental: First, optimal assay conditions and assay quality in 384-well format were determined. As mentioned, the mouse macrophage J774 cell line (J774-Dual, InvivoGen) stably transfected with the same inducible reporters described above (e.g., IRF-Lucia luciferase and NF-κB-SEAP) was used. The responsiveness of the J774-Dual cell line was investigated in an array of assay conditions to obtain sensitive and reproducible results for the activation of the IRF and NF-κB reporters. An optimal plating density and conditions for these cells was established for these cells in a 384-well format. Assay work-flow is similar to that discussed above for the THP1-Dual assay without a need for cell differentiation. Thus, cells are seeded directly in growth medium and incubated at 37° C. in a 5% C02 incubator for 24 hours prior to the programmed treatments being added as described herein.
The primary high throughput screen used the HTS platform of human THP1 monocyte cells containing the IRF-Lucia luciferase and NFκB-SEAP (secreted embryonic alkaline phosphatase) dual reporter (THP1-Dual, Invivogen), enabling the simultaneous study of the IRF and NFκB signaling pathways respectively. As discussed, the Lucia luciferase reporter gene is under the control of an ISG54 (interferon-stimulated gene) minimal promoter in conjunction with five interferon-stimulated response elements (ISRE). The SEAP gene is driven by an IFNβ minimal promoter fused to five copies of the NFκB consensus transcriptional response element and three copies of the c-Rel binding site. Both IRF-Lucia luciferase and NFκB-SEAP reporter proteins are secreted and readily measurable in the cell culture supernatant when using QUANTI-Luc™ and QUANTI-Blue™ detection reagents, respectively. Identified “hits” were confirmed in a secondary screen with an 8-point dose response curve. Hits were further screened for activity in the mouse using the mouse J774 macrophage-like cell line containing the identical reporter constructs (J774-Dual, Invivogen).
The OTRADI Small Molecule Library of approximately 246,000 diverse compounds (see below for description) was screened using the THP1-Dual based HTS platform described above. All transfer steps in the screen are fully automated, thus reducing variability. Primary screening included a single data point or dose for each molecule. After data normalization was applied for each assay run, “hit” selection was performed on the plates that pass the quality control (QC) criterion. Hits were defined as samples having values above the activity cutoff determined based on noise level of the assay to reduce false positive rates. In the pilot study discussed above this activity value was >3σ above the ISRE mean with the added criteria of NFκB activation being lower than […] from the mean to identify IRF selective compounds. The ratio of ISRE:NFκB activity was also calculated as a selectivity index for prioritizing hit selection. Primary hits underwent secondary screening to determine the 50% effective concentration (EC50) and 50% cytotoxic concentration (CC50) of these agents using an 8-point dose-response curve in the human THP1-Dual cells. Cytotoxicity was measured in the plate using Cell Titer Glo (Promega). Identified candidate compounds were further screened (orthogonal screen) for cross species activity in the validated mouse J774-Dual assay using an 8-point dose-response format to determine EC50 and CC50 values as well as ISRE:NFκB ratios. A general process flow for the experimental design laid out above is depicted at FIG. 12.

[5] = Human Reporter Cell Line, 8-point dose response
[6] = J774, Mouse Reporter Cell Line, 8-point dose response
[7] = Mouse Reporter Cell Line J774, at peak
[8] = J774, Mouse Reporter Cell Line J774

Compound	CC50 (J774-Dual cytotoxicity; Mouse Reporter Cell Line J774) [µM]	EC50 ([1]; Human Reporter Cell Line THP1) [µM]	CC50 ([3]; Human Reporter Cell Line THP1) [µM]	further results
Cc1ccc(C(=O)Nc2cc(-c3nc4ccccc4s3)ccc2C)cc1Cl [ND-70]	> 25	~4.33	17.4	EC50 ([2]; Human Reporter Cell Line THP1): 4.76 µM
COc1ccc(C(=O)Nc2cc(-c3nc4cc(OCCCN5CCCC5)ccc4o3)ccc2C)cc1[N+](=O)[O-] [ND-92]	> 25	~2.33	> 25	
Cc1cc2nc(-c3ccc(C)c(NC(=O)c4ccc([N+](=O)[O-])cc4Cl)c3)oc2cc1C [ND-102]		57.9		EC50 ([2]; Human Reporter Cell Line THP1): 24.7 µM
COc1c(C)cc(Br)cc1C(=O)Nc1ccc(N2CCN(C(=O)c3cccs3)CC2)cc1 [NA-31]				CC50 (J774-Dual cytotoxicity; Mouse Reporter Cell Line): > 25 µM; EC50 [1, 5]: ~3.24 µM; CC50 ([3]; Human Reporter Cell Line): > 25 µM
Oc1ccc(-c2nc3ccc(O)cc3o2)cc1 [ND-74]	> 25	32.5	> 25	
CC(Oc1ccc(C(=O)Nc2ccc(N3CCN(C(=O)c4cccs4)CC3)cc2)cc1)c1ccccc1 (centres unmarked) [NA-22]				CC50 (J774-Dual cytotoxicity; Mouse Reporter Cell Line): > 25 µM; EC50 [1, 5]: ~2.62 µM; CC50 ([3]; Human Reporter Cell Line): > 25 µM
Cc1ccc(-c2nc3cc(Cl)ccc3o2)cc1NC(=O)c1cc([N+](=O)[O-])c(C)c([N+](=O)[O-])c1 [ND-61]	> 25	~5.61	> 25	
Cc1cc2nc(-c3ccc(C)c(NC(=O)c4ccc(OCc5ccccc5)cc4)c3)oc2cc1C [ND-105]	> 10	2.19	> 10	
Cc1ccc(C(=O)Nc2cc(-c3nc4ccccc4s3)ccc2C)c(C)c1 [ND-104]		12.2		
O=C(Nc1ccc(N2CCN(C(=O)c3cccs3)CC2)cc1)c1ccc2c(c1)OCCO2 [NA-28]				CC50 (J774-Dual cytotoxicity; Mouse Reporter Cell Line): > 25 µM; EC50 [1, 5]: 3.02 µM; CC50 ([3]; Human Reporter Cell Line): > 25 µM
Cc1ccc(-c2nc3ccccc3s2)cc1NC(=O)c1ccc(C(F)(F)F)c([N+](=O)[O-])c1 [ND-79]	> 25	~11.3	> 25	
Cc1cccc(C(=O)Nc2ccc(N3CCN(C(=O)c4cccs4)CC3)cc2)c1C [NA-6]				J774 IRF % activation at peak ([4]; Mouse Reporter Cell Line): 22.78%; EC50 [4, 6]: 13.1 µM; CC50 (J774-Dual cytotoxicity; Mouse Reporter Cell Line): > 25 µM; EC50 [2, 5]: 7.47 µM; CC50 ([3]; Human Reporter Cell Line): > 25 µM
COc1c(Cl)cc(C(=O)Nc2cc(-c3nc4cc(Cl)ccc4o3)ccc2C)cc1Cl [ND-101]	> 25	~3.75	> 25	
Cc1ccc(C(=O)Nc2ccc(O)c(-c3nc4ccccc4s3)c2)cc1[N+](=O)[O-] [ND-63]	> 25	~3.2	27.4	
O=C(Nc1ccc(N2CCN(C(=O)c3cccs3)CC2)cc1)c1ccc2ccccc2c1 [NA-7]				J774 IRF % activation at peak ([4]; Mouse Reporter Cell Line): 5.638%; EC50 [4, 6]: 4.36 µM; CC50 (J774-Dual cytotoxicity; Mouse Reporter Cell Line): > 25 µM; EC50 [2, 5]: 3.91 µM; CC50 ([3]; Human Reporter Cell Line): > 25 µM
Cc1ccc(-c2nc3ccccc3s2)cc1NC(=O)c1cc(I)ccc1Cl [ND-62]	> 25	~9.34	> 25	
COc1ccc(C(=O)Nc2cc(-c3nc4ccccc4s3)ccc2C)cc1Br [ND-68]	> 25	~9.75	> 25	
COc1ccc2oc(-c3ccc(C)c(NC(=O)c4ccc(OC)c([N+](=O)[O-])c4)c3)nc2c1 [ND-86]	> 25	~3.85	> 25	
CCOc1ccc(C(=O)Nc2cc(-c3nc4ncccc4o3)ccc2C)cc1[N+](=O)[O-] [ND-48]	> 25		7.26	J774 IRF % activation at peak [4, 7]: 4.4%; EC50 [4, 8]: 10 µM; EC50 ([2]; Human Reporter Cell Line THP1): ~3.05 µM
COC(=O)COc1cccc(NC(=O)c2cccc(NC(=O)c3cccs3)c2)c1 [NC-4]				J774 IRF % activation at peak ([4]; Mouse Reporter Cell Line): 6.428%; EC50 [4, 6]: ~5.88 µM; CC50 (J774-Dual cytotoxicity; Mouse Reporter Cell Line): > 25 µM; EC50 [2, 5]: 9.88 µM; CC50 ([3]; Human Reporter Cell Line): > 25 µM
COc1ccc(NC(=O)c2cc(NC(=O)c3cccs3)ccc2N2CCOCC2)cc1Cl [NB-22]	> 25		> 25	J774 IRF % activation at peak [4, 7]: 24.91%; EC50 [4, 8]: 65 µM; EC50 ([2]; Human Reporter Cell Line THP1): 3.26 µM
